Entries after “also recorded” stand apart in the source; their conditions may differ.
System: IL2R-α, -β, and -γ chains
Experiment: FACS analysis of IL2 receptor expression on PHA-activated T-cell blasts
Format: cell-based, human
Details: 50 μM overnight
Experimental: FIG. 7A is a bar graph showing that proliferation of PHA-activated human T cells was blocked by the indicated NCI agents following stimulation with IL-2. FIG. 7B is a FACS analysis of PHA-activated T-cell blasts that were treated without (heavy line) or with 50 μM NC1153 (light line) overnight and stained for IL2R-α, -β, and -γchains. FIG. 7C is a graph of cell growth inhibition over a range of NC1153 concentration in non-Jak3 expressing Jurkat cells (black diamonds) and in Jak3 containing PHA activated T-cells (open boxes). FIG. 7D is a graph of cell growth inhibition versus NC1153 concentration in T-cells stimulated by cytokines that utilize Jak3 and the common gamma chain.
Also shown (FIG. 7B) is a graph showing the FACS analysis of PHA-activated T-cell blasts that were treated without (heavy line) or with 50 μM NC1153 (light line) overnight and stained for IL2R-α, -β, and -γ chains. The dashed lines indicate cells pretreated with NC1153. […] Data are normalized as percent of vehicle control. NC1153 inhibits growth of cells by cytokines that utilize Jak3 and the common gamma chain (FIG. 7D). […] Thus, the inhibitory effects of NC1153 are not limited to cells stimulated only by IL-2. Instead, the entire family of cytokines which use Jak3 are blocked by NC1153.

## CN(C)CC1CCCCCCCCCC(CN(C)C)C1=O (mixture of isomers) [649641P (NC1153)]
  IL2 receptor expression: failed to affect IL2 receptor expression; also recorded: unaffected
